Laboratory results published in ChEMBL document CHEMBL5728816, “Thienopyridine inhibitors of RIPK2” (2021).

Molecular target: Receptor-interacting serine/threonine-protein kinase 2 (Homo sapiens, UniProt O43353)
Experiment: TR-FRET Assay: All data was collected using a standard TR-FRET screening assay: LanthaScreen Tracer 199 at 50 nM, Eu-anti-His Antibody at 2 nM, 5 nM RIPK2 enzyme, and 1× Kinase Reaction Buffer. There was a 1 hour incubation prior to read. TR-FRET signal of the interaction (340Ex/665Em/615Em) was read at room temperature with standard setting. Background was subtracted of wells containing no enzyme. Percent inhibition was based on uninhibited controls log (inhibitor) vs. response. Variable slope equation was used with no constraints: Log Y=Bottom+(Top−Bottom)/(1+10^((Log IC50−X)*Hill Slope)).Analytical Instrumentation:NMR: Bruker UltraShield™-300 or Bruker Ascend™-400 spectrometers.LCMS: Shimadzu LCMS-2020 or Agilent technologies 1260 Infinity-6120 Quadrupole LC/MS.Purification:TLC plates: Thin-layer chromatography with E. Merck silica gel 60 F254 pre-coated plates (0.25 mm).Flash chromatography: Agela Technologies CHEETAH-MP200 CH16200 2T-A0099 or Biotage Isolera ISO-PSV ISPS 1832112.

Receptor-interacting serine/threonine-protein kinase 2, sequence (O43353 whole entry): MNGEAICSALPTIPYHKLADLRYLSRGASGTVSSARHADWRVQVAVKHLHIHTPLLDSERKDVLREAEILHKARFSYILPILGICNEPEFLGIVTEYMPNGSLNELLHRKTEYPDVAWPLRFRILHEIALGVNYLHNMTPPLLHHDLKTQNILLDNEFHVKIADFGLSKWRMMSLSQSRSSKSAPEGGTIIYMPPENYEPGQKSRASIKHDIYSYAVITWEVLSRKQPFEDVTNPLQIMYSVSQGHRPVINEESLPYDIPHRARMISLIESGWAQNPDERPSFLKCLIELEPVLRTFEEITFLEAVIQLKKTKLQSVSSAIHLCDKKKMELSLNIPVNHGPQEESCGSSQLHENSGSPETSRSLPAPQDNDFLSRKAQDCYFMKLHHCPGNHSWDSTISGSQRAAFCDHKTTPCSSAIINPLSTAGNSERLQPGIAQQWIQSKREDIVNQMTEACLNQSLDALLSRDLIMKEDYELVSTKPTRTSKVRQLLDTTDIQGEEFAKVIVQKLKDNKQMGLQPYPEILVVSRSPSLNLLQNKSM

IC50: < 10 nM
SMILES: C[C@@H]1[C@H](c2cc3c(Nc4ccc5scnc5c4F)ccnc3s2)CCCN1C
